# Source: US7579366B2, “Epothilone derivatives and their synthesis and use” (The Scripps Research Institute, priority 1998, dated 2009)
# Key:
# [1] = target: T1, pig brain microtubuli protein (tubulin plus microtubuli-associated proteins) (Sus scrofa, UniProt P02554); assay: Induction of tubulin polymerisation, pig brain microtubuli, compared with 25 μM epothilone B; type: biochemical; conditions: 5 μM test compound versus epothilone B at 25 μM (in %)
# T1 construct: Microtubuli-protein is obtained from pig brain by two cycles of temperature dependent depolymerisation/polymerisation; from tissue; host or cells: pig brain
# Procedure: Stock solutions of the test compounds are made in DMSO and stored at −20° C. Microtubuli-protein is obtained from pig brain by two cycles of temperature dependent depolymerisation/polymerisation, as described (see Weingarten et al., Biochemistry 1974; 13: 5529-37). Working stock solutions of microtubule protein (meaning tubulin plus microtubuli-associated proteins) are stored at −70° C. The degree of the microtubuli protein polymerisation induced by a test compound is measured essentially as known from the literature (see Lin et al., Cancer Chem. Pharm. 1996; 38:136-140). In short, 5 μl stock solution of the test compound are pre-mixed in the twenty-fold of the desired final concentration with 45 μl of water at room temperature, and the mixture is then placed on ice. […] As indirect measure for the tubulin-polymerisation the protein concentration of the supernatant (which contains the rest of the un-polymerised, soluble microtubuli protein) is determined according to the Lowry method (DC Assay Kit, Bio-Rad Laboratories, Hercules, Calif.), and the optical density (OD) of the color reaction is determined at 750 nm with a spectrometer (SpectraMax 340, Molecular Devices, Sunnyvale, Calif.). […]
# KB-31 cells = assay: Cell growth inhibition, KB-31 epidermoid carcinoma cells; type: cell-based; conditions: Homo sapiens, KB 3-1
# Procedure: (§1) Stock solutions of the test compound of formula I 10 mM) in DMSO are prepared and stored at −20° C. Human KB-31 and (multidrug-resistant, P-gp 170 overexpressing) KB-8511 epidermoid carcinoma cells are from Dr. M. Baker, Roswell Park Memorial Institute (Buffalo, N.Y., USA) (for description see also Akiyama et al., Somat. Cell. Mol. Genetics 11, 117-126 (1985) und Fojo A., et al., Cancer Res. 45, 3002-3007 (1985)—KB-31 und KB-8511 both are derivatives of the KB-cell line (American Type Culture Collection) and are human epidermoid carcinoma cells. KB-31 cells can be cultivated in mono-layers using calf serum (M.A. Bioproducts), L-glutamine (Flow), penicillin (50 Units/ml) und streptomycin (50 μg/ml (Flow); they then grow with a doubling rate of about 22 hours, and the relative efficiency of plating them out lies at about 60%. […] After washing again, the stain is eluted with 3% HCl and the optical density at 665 nm is measured with a SpectraMax 340 (Molecular Devices, Sunnyvale, Calif.). IC50-values are determined by mathematically fitting the data to curves using the SoftPro2.0 program (Molecular Devices, Sunnyvale, Calif.) and the formula [(OD treated)−(OD start)]/[(OD control)−(OD start)]×100. […]
# KB-8511 cells = assay: Cell growth inhibition, KB-8511 epidermoid carcinoma cells (P-gp overexpressing); type: cell-based; conditions: Homo sapiens
# Procedure: as §1
# A549 cells = assay: Cell growth inhibition, A549 lung cells; type: cell-based; conditions: Homo sapiens
# HCT-15 cells = assay: Cell growth inhibition, HCT-15 colon cells; type: cell-based; conditions: Homo sapiens
# HCT-116 cells = assay: Cell growth inhibition, HCT-116 colon cells; type: cell-based; conditions: Homo sapiens
# DU145 cells = assay: Cell growth inhibition, DU145 prostate cells; type: cell-based; conditions: Homo sapiens, DU-145
# PC-3M cells = assay: Cell growth inhibition, PC-3M prostate cells; type: cell-based; conditions: Homo sapiens
# MCF-7 cells = assay: Cell growth inhibition, MCF-7 breast cells; type: cell-based; conditions: Homo sapiens, MCF7
# MCF-7/ADR cells = assay: Cell growth inhibition, MCF-7/ADR breast cells (multidrug resistant); type: cell-based; conditions: Homo sapiens, NCI/ADR-RES
# [2] = from C/C(=C\I)[C@@H](O)C/C=C(\CCC[C@H](C)[C@H](O[Si](C)(C)C(C)(C)C)[C@@H](C)C(=O)C(C)(C)[C@H](CC(=O)O)O[Si](C)(C)C(C)(C)C)COC(c1ccccc1)(c1ccccc1)c1ccccc1; ester bond; 2,4,6-trichlorobenzoyl chloride, Et3N, 4-DMAP (Yamaguchi); toluene; 4.66 mM; 75.0 °C; 2.5 h
# T1 sequence (P02554 whole entry): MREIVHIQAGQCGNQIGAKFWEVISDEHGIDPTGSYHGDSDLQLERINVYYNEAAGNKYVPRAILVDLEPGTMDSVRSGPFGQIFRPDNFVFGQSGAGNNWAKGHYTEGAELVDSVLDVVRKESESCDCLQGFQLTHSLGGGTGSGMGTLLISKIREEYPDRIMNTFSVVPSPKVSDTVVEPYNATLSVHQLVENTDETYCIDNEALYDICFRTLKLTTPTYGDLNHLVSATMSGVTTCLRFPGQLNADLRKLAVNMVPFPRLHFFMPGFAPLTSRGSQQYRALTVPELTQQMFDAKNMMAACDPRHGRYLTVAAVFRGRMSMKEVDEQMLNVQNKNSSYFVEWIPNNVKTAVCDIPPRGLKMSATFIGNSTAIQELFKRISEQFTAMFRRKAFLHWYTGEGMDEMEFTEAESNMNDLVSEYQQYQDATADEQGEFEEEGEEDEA
# T1 sequence (P02550 whole entry partner): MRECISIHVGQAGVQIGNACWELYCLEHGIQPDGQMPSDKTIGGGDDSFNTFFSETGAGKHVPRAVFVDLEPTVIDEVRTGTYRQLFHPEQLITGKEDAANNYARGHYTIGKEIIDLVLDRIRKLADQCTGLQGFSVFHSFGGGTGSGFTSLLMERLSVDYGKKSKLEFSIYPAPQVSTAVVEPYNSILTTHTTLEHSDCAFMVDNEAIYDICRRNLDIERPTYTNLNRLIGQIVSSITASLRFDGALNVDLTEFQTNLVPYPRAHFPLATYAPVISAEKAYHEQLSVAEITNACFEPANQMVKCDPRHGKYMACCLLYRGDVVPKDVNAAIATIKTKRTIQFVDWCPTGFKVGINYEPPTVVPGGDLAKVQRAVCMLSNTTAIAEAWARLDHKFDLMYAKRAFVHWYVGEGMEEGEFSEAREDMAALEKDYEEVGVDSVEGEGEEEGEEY
SMILES,Tubulin (%): induction of tubulin polymerisation [1],IC50 (KB-31 cells),IC50 (KB-8511 cells),IC50 (A549 cells),IC50 (HCT-15 cells),IC50 (HCT-116 cells),IC50 (DU145 cells),IC50 (PC-3M cells),IC50 (MCF-7 cells),IC50 (MCF-7/ADR cells),"ring closure, yield of all isomers [2]"
"C/C(=C\c1ccc(C)cn1)[C@@H]1C[C@@H]2O[C@]2(C)CCCC(C)[C@H](O)C(C)C(=O)C(C)(C)C(O)CC(=O)O1 (some centres unmarked) [D (Example 1), 5-Methylpyridine Analogue D of Epothilone B]",88.9%,0.108 nM,0.105 nM,0.17 nM,0.247 nM,0.209 nM,0.252 nM,0.361 nM,0.114 nM,0.853 nM,
C/C(=C\I)[C@@H]1C/C=C(/COC(c2ccccc2)(c2ccccc2)c2ccccc2)CCC[C@H](C)[C@H](O[Si](C)(C)C(C)(C)C)[C@@H](C)C(=O)C(C)(C)[C@@H](O[Si](C)(C)C(C)(C)C)CC(=O)O1,,,,,,,,,,,84%
